Reference: paper PMC8998355, “Diversity-Oriented Synthesis Catalyzed by Diethylaminosulfur-Trifluoride—Preparation of New Antitumor Ecdysteroid Derivatives” (International Journal of Molecular Sciences, 2022)

Legend:
[1] = design: method as in PMID 34825653; conditions: cited from earlier work
[2] = test system: L5178Y mouse T-cell lymphoma cells; experiment: MTT antiproliferative assay (72 h, 6 × 10^3 cells); format: cell-based; conditions: for IC50: Mus musculus
Protocol: (§1) To assess the compounds’ effect on cell growth and viability, we used two different experimental setups of MTT assay. This allowed a comparative evaluation of results obtained from a short-term (24 h) treatment of a relatively higher number (10,000) of cells and those from a long-term (72 h) treatment of a lower cell number (6000), which makes it possible to gain some insight into the cytotoxic vs. cytostatic properties of the compounds. Even though MTT assay is an endpoint detection method, i.e., it provides a single readout of viable cells at the end of the experiment, such a comparison offers a reliable tool to identify antiproliferative activity of compounds that are not cytotoxic.
(§2) L5178Y mouse T-cell lymphoma cells (ECACC Cat. No. 87111908) were obtained from FDA, Silver Spring, MD, USA. These were transfected with pHa MDR1/A retrovirus as described previously. ABCB1-expressing L5178YMDR cells were selected by culturing the infected cells with colchicine. The cell lines were cultured in McCoy’s 5A medium supplemented with 10% heat inactivated horse serum, 2 mM L-glutamine, and penicillin–streptomycin mixture.
(§3) MTT assay was performed in 96-well flat-bottomed microtiter plates as described before. Briefly, a 10 mM concentration stock solution in DMSO was prepared for each compound. These were diluted in 100 μL of McCoy’s 5A medium. Subsequently, 1 × 10^4 (cytotoxicity assay) or 6 × 10^3 (antiproliferative assay) T-cell mouse lymphoma cells in 100 μL of medium were added to each well, except for the medium control wells.
(§4) The culture plates were further incubated at 37 °C for 24 h (cytotoxicity assay) or 72 h (antiproliferative assay); at the end of the incubation period, 20 μL of MTT solution (from a 5 mg/mL stock) was added to each well. After incubation at 37 °C for 4 h, 100 μL of SDS solution (10% in 0.01 M HCI) was added to each well and the plates were further incubated at 37 °C overnight. The cell growth was determined by measuring the optical density at 540 nm (ref. 630 nm) with a Multiscan EX ELISA reader (Thermo Labsystems, Cheshire, WA, USA). IC50 values were calculated by variable slope nonlinear regression using the log(inhibitor) vs. normalized response of GraphPad Prism 5.01 (GraphPad Software Inc., San Diego, CA, USA).

[3] = test system: L5178YMDR cells (ABCB1-expressing); experiment: MTT antiproliferative assay (72 h, 6 × 10^3 cells); format: cell-based; conditions: Mus musculus, 72 h MTT, n = 3, read-out: Antiproliferative Effect (IC50 ± SD)
Protocol: as §1, §2, §3, §4

[4] = test system: L5178Y mouse T-cell lymphoma cells; experiment: MTT cytotoxicity assay (24 h, 1 × 10^4 cells); format: cell-based; conditions: 24 h MTT, n = 3, read-out: Cytotoxicity (IC50 ± SD)
Protocol: as §1, §2, §3, §4

[5] = test system: L5178YMDR cells (ABCB1-expressing); experiment: MTT cytotoxicity assay (24 h, 1 × 10^4 cells); format: cell-based; conditions: Mus musculus, 24 h MTT, n = 3, read-out: Cytotoxicity (IC50 ± SD)
Protocol: as §1, §2, §3, §4

L5178YMDR cells = experiment: Combination assay with doxorubicin (checkerboard microplate method, MTT); format: cell-based, mouse; design: Dm (antilog of the x-intercept of the median-effect plot): unit not given here; conditions: for CIavg (weighted average CI): (CI50 + 2CI75 + 3CI90)/6
Protocol: Compounds 7, 10, 11, 13, and 14 had sufficient individual antiproliferative properties for their assessment of chemo-sensitizing activity. This was carried out as an antiproliferative assay on L5178YMDR cells in combination with doxorubicin, arranged according to the checkerboard microplate method.
The checkerboard microplate method was used to evaluate the compounds’ interaction with doxorubicin, as described before. Briefly, doxorubicin (2 mg/mL, Teva Pharmaceuticals, Budapest, Hungary) was serially diluted in the horizontal direction (100 µL per well), and the ecdysteroid was subsequently diluted in the vertical direction (50 µL per well). L5178YMDR cells were re-suspended in culture medium and added to each test well in 50 µL to contain 1 × 10^4 cells per well, and 50 µL of medium was added to the medium control wells. The plates were incubated for 72 h at 37 °C in a CO2 incubator and, at the end of the incubation period, the cell growth was determined by MTT assay as described above. Cell viability data were analyzed by the Calcusyn software using the Chou method, and drug interactions were expressed as combination index (CI) values, in which 0 < CI < 1, CI = 1, and CI > 1 refer to synergism, additivity, and antagonism, respectively.

[6] = test system: MRC-5 human embryonal lung fibroblasts; experiment: MTT antiproliferative assay (72 h); format: cell-based; conditions: for IC50: Homo sapiens, MRC5, MRC-5, 72 h MTT, n = 3, read-out: Antiproliferative Effect (IC50 ± SD)
Protocol: as §1
(§5) MRC-5 human embryonal lung fibroblasts (CCL-171, ATCC) were acquired from Sigma-Aldrich (Merck, KGaA, Darmstadt, Germany), and were cultured in EMEM medium containing 4.5 g/L glucose and supplemented with a non-essential amino acid mixture, a selection of vitamins, and 10% of FBS.
(§6) The adherent human fibroblast cells were seeded in 100 μL of EMEM medium overnight before each assay. Two-fold serial dilutions of the compounds (0.19–100 µM) were prepared in separate plates, then transferred to the plates containing the adherent cell lines.
as §4

[7] = MTT cytotoxicity assay (24 h); format: cell-based; conditions: human, MRC-5 human embryonal lung fibroblasts; MRC-5, 24 h MTT, n = 3; read-out: Cytotoxicity (IC50 ± SD)
Protocol: as §1, §5, §6, §4

ABCB1 = molecular target: T1, ABCB1 (Homo sapiens, UniProt P08183); experiment: ABCB1 inhibition assay (rhodamine 123 accumulation, flow cytometry); format: cell-based; conditions: human, probe rhodamine 123 (5.2 µM), L5178YMDR, rhodamine 123 accumulation, n = 1
T1 construct: expressed in transfected cells; host or cells: L5178Y mouse T-cell lymphoma cells transfected with pHa MDR1/A retrovirus, selected with colchicine (L5178YMDR)
Protocol: (§7) ABCB1 inhibition was determined by the intracellular accumulation of rhodamin 123 as reported before. Briefly, 2 × 10^6 cells/mL of L5178Y and L5178YMDR cell lines were re-suspended in serum-free McCoy’s 5A medium and distributed in 0.5 mL aliquots into Eppendorf centrifuge tubes. The compounds were added at a final concentration of 2 or 20 μM and the samples were incubated for 10 min at room temperature. Tariquidar was used as positive control and DMSO as negative control; for the latter, no activity was observed. Subsequently, 10 μL (5.2 μM final concentration) of the ABCB1 substrate fluorescent dye rhodamine 123 was added and the cells were incubated further for 20 min at 37 °C, washed twice and re-suspended in 1 mL PBS for analysis. Fluorescence of the cell population was measured with a PartecCyFlow® flow cytometer (Partec, Münster, Germany). Mean fluorescence intensity percentage was calculated for the treated vs. untreated L5178YMDR cells. Inhibition percentage for the treated cells was calculated from the corresponding values of the untreated L5178Y and L5178YMDR cells, representing 100% and 0% inhibition, respectively.

ABCB1 transporter = molecular target: T2, ABCB1 transporter (Homo sapiens, UniProt P08183); experiment: as above; format: cell-based; conditions: L5178YMDR, 2 or 20 µM
T2 construct: expressed in transfected cells; host or cells: L5178Y mouse T-cell lymphoma cells transfected with pHa MDR1/A retrovirus, selected with colchicine (L5178YMDR)
Protocol: as §7

[8] = L5178Y, 72 h MTT, n = 3, read-out: Antiproliferative Effect (IC50 ± SD)
[9] = drug ratio 23.2:1, with doxorubicin
[10] = drug ratio 46.4:1, with doxorubicin
[11] = drug ratio 92.8:1, with doxorubicin
[12] = drug ratio 185.6:1, with doxorubicin
[13] = drug ratio 371.2:1, with doxorubicin

Row | Compound | IC50 [2, 8] [µM] | IC50 [3] [µM] | IC50 [4] [µM] | IC50 [5] [µM] | CI at ED75 (L5178YMDR cells; [9]) | CI at ED90 (L5178YMDR cells; [9]) | Dm (antilog of the x-intercept of the median-effect plot) (L5178YMDR cells; [9]) | CIavg (weighted average CI) (L5178YMDR cells; [9]) | CI at ED75 (L5178YMDR cells; [10]) | CI at ED90 (L5178YMDR cells; [10]) | Dm (antilog of the x-intercept of the median-effect plot) (L5178YMDR cells; [10]) | CIavg (weighted average CI) (L5178YMDR cells; [10]) | CI at ED75 (L5178YMDR cells; [11]) | CI at ED90 (L5178YMDR cells; [11]) | Dm (antilog of the x-intercept of the median-effect plot) (L5178YMDR cells; [11]) | CIavg (weighted average CI) (L5178YMDR cells; [11]) | CI at ED75 (L5178YMDR cells; [12]) | CI at ED90 (L5178YMDR cells; [12]) | Dm (antilog of the x-intercept of the median-effect plot) (L5178YMDR cells; [12]) | CIavg (weighted average CI) (L5178YMDR cells; [12]) | further results
1 | CC(C)(O)CC[C@@H](O)[C@](C)(O)[C@H]1CC[C@@]2(O)C3=CC(=O)[C@@H]4C[C@@H](O)[C@@H](O)C[C@]4(C)[C@H]3CC[C@]12C [20-hydroxyecdysone] |  |  |  |  |  |  |  |  |  |  |  |  |  |  |  |  |  |  |  |  | MasR activity, in words [1]: agonist
2 | CC(=O)[C@H]1CC[C@@]2(F)C3=CC(=O)[C@@H]4C[C@H]5OC(C)(C)O[C@H]5C[C@]4(C)[C@H]3CC[C@]12C [Compound 11] | 31.8 ± 2.1 | 55.7 ± 5.9 | 91.9 ± 9.3 | 81.9 ± 2.9 | 0.56 | 0.41 | 7.00 | 0.52 | 0.55 | 0.39 | 11.66 | 0.51 | 0.53 | 0.38 | 15.83 | 0.49 | 0.66 | 0.48 | 24.06 | 0.61 | CI at ED75 (L5178YMDR cells; [13]): 0.72; CI at ED90 (L5178YMDR cells; [13]): 0.55; Dm (antilog of the x-intercept of the median-effect plot) (L5178YMDR cells; [13]): 28.63; CIavg (weighted average CI) (L5178YMDR cells; [13]): 0.67; IC50 [6]: 10 ± 2.1 µM; IC50 at 24 h [7]: > 100 µM; inhibition at 20 min, 2 µM (ABCB1): -0.57%; inhibition at 20 min, 20 µM (ABCB1): -0.51%
3 | CC(=O)N[C@H]1CC=C2C3=CC(=O)[C@@H]4C[C@H]5OC(C)(C)O[C@H]5C[C@]4(C)[C@H]3CC[C@@]21C [Compound 13] | 4.6 ± 0.8 | 4.8 ± 0.6 | > 100 | > 100 | 0.55 | 0.49 | 8.17 | 0.53 | 0.51 | 0.39 | 14.17 | 0.48 | 0.51 | 0.47 | 17.54 | 0.50 | 0.68 | 0.65 | 29.89 | 0.67 | IC50 ([2]; text summary for both lymphoma cell lines (L5178Y and L5178YMDR), read-out: antiproliferative activity on the lymphoma cell lines (IC50)): ~4.7 µM; antiproliferative activity stronger than cytotoxicity ([2]; lymphoma cell lines, ratio of cytotoxic to antiproliferative IC50): over 20 times; interaction with doxorubicin, in words (L5178YMDR cells; checkerboard, 72 h): relevant synergism with doxorubicin already at 50% inhibition; IC50 [6]: 12 ± 1.9 µM; selective antiproliferative activity against both tumor cell lines ([6]; tumor cell lines vs MRC-5): ca. 2.5 times; IC50 at 24 h [7]: 35 ± 3.2 µM; direct ABCB1 / efflux pump inhibition, in words (ABCB1 transporter): inactive; inhibition at 20 min, 2 µM (ABCB1): 0.09%; inhibition at 20 min, 20 µM (ABCB1): -0.01%
4 | CC(=O)N[C@H]1CC[C@@]2(F)C3=CC(=O)[C@@H]4C[C@H]5OC(C)(C)O[C@H]5C[C@]4(C)[C@H]3CC[C@]12C [Compound 14] | 71.6 ± 1.5 | 65.9 ± 2.1 | > 100 | > 100 | 0.73 | 0.63 | 9.04 | 0.70 | 0.72 | 0.60 | 13.53 | 0.68 | 0.86 | 0.74 | 20.47 | 0.82 | 1.26 | 1.24 | 30.97 | 1.25 | IC50 [6]: > 100 µM; IC50 at 24 h [7]: > 100 µM; inhibition at 20 min, 2 µM (ABCB1): 0.2%; inhibition at 20 min, 20 µM (ABCB1): -0.12%
